ChEMBL document CHEMBL1129742, “Development of a high specific activity sulfur-35-labeled sulfonamide radioligand that allowed the identification of a new growth hormone secretagogue receptor” (J Med Chem, 1996)
Non-standard residues stand in square brackets, D forms with d. Residues, ends and D or L forms follow the SMILES beside them.

What was measured:
[1] = Dissociation constant was evaluated which is similar to Ki (inhibitory constant)
Rattus norvegicus = organism: Rattus norvegicus; experiment: Effective Concentration for GH secretion from rat pituitary cell was determined; assay type: functional; details: Pituitary gland cell

CC(C)(N)C(=O)N[C@H](COCc1ccccc1)C(=O)N1CCC2(CC1)CN(S(C)(=O)=O)c1ccccc12 [IBUTAMOREN]
Kd [1]: 0.161 nM | EC50 (Rattus norvegicus): […]

C[C@H](NC(=O)[C@@H](Cc1c[nH]c2ccccc12)NC(=O)[C@@H](N)Cc1c[nH]cn1)C(=O)N[C@@H](Cc1c[nH]c2ccccc12)C(=O)N[C@H](Cc1ccccc1)C(=O)N[C@@H](CCCCN)C(N)=O (H-H[dW]AW[dF]K-NH2)
EC50 (Rattus norvegicus): 10 nM

CC(C)(N)CC(=O)N[C@H]1CCc2ccccc2N(Cc2ccc(-c3ccccc3-c3nn[nH]n3)cc2)C1=O
EC50 (Rattus norvegicus): > 5000 nM
